# From US20050197350A1, “Novel quinoline, tetrahydroquinazoline, and pyrimidine derivatives and methods of treatment related to the use thereof” (TAISHO PHARMACEUTICAL CO., LTD., priority 2003, published 2005)
# System: MCH receptors
# Test: MCH receptor activity class (method not given)
# Conditions: class by percent of control at 10^-7 M or IC50
row,SMILES,class
1,"CN(C)c1nc(N[C@H]2CC[C@@H](CNC(=O)c3c(Cl)cccc3Cl)CC2)nc2c1CCCC2 [compound 656, 2,6-dichloro-N-[(cis-4-{[4-(dimethylamino)-5,6,7,8-tetrahydroquinazolin-2-yl]amino}cyclohexyl)methyl]benzamide]",2 (Class 2: The value of percent of control at 10^−7 M was from 40% to 60% or the value of IC′50 was from 50 nM to 200 nM.)
2,CN(C)c1nc(N[C@H]2CC[C@@H](CNC(=O)c3ccccc3I)CC2)nc2c1CCCC2 [compound 657],3 (Class 3 The value of percent of control at 10^−7 M was more than 60% or the value of IC50 was more than 200 nM.)
3,Cc1ccccc1C(=O)NC[C@H]1CC[C@@H](Nc2nc3c(c(N(C)C)n2)CCCC3)CC1 [compound 658],3 (Class 3 The value of percent of control at 10^−7 M was more than 60% or the value of IC50 was more than 200 nM.)
4,CN(C)c1nc(N[C@H]2CC[C@@H](CNC(=O)c3cccc(Cl)c3Cl)CC2)nc2c1CCCC2 [compound 659],3 (Class 3 The value of percent of control at 10^−7 M was more than 60% or the value of IC50 was more than 200 nM.)
5,CN(C)c1nc(N[C@H]2CC[C@@H](CNC(=O)c3cc(F)ccc3Cl)CC2)nc2c1CCCC2 [compound 660],3 (Class 3 The value of percent of control at 10^−7 M was more than 60% or the value of IC50 was more than 200 nM.)
6,CN(C)c1nc(N[C@H]2CC[C@@H](CNC(=O)c3cccc4c3-c3ccccc3C4=O)CC2)nc2c1CCCC2 [compound 661],3 (Class 3 The value of percent of control at 10^−7 M was more than 60% or the value of IC50 was more than 200 nM.)
7,CN(C)c1nc(N[C@H]2CC[C@@H](CNC(=O)c3c(F)ccc(F)c3F)CC2)nc2c1CCCC2 [compound 662],3 (Class 3 The value of percent of control at 10^−7 M was more than 60% or the value of IC50 was more than 200 nM.)
8,CN(C)c1nc(N[C@H]2CC[C@@H](CNC(=O)c3cccc(F)c3F)CC2)nc2c1CCCC2 [compound 663],3 (Class 3 The value of percent of control at 10^−7 M was more than 60% or the value of IC50 was more than 200 nM.)
9,CN(C)c1nc(N[C@H]2CC[C@@H](CNC(=O)c3c(F)cccc3F)CC2)nc2c1CCCC2 [compound 664],3 (Class 3 The value of percent of control at 10^−7 M was more than 60% or the value of IC50 was more than 200 nM.)
10,CN(C)c1nc(N[C@H]2CC[C@@H](CNC(=O)c3c(F)cccc3C(F)(F)F)CC2)nc2c1CCCC2 [compound 665],3 (Class 3 The value of percent of control at 10^−7 M was more than 60% or the value of IC50 was more than 200 nM.)
11,Cc1cc(C)c(C(=O)NC[C@H]2CC[C@@H](Nc3nc4c(c(N(C)C)n3)CCCC4)CC2)c(C)c1 [compound 666],2 (Class 2: The value of percent of control at 10^−7 M was from 40% to 60% or the value of IC′50 was from 50 nM to 200 nM.)
12,CN(C)c1nc(N[C@H]2CC[C@@H](CNC(=O)c3c(F)cccc3Cl)CC2)nc2c1CCCC2 [compound 667],2 (Class 2: The value of percent of control at 10^−7 M was from 40% to 60% or the value of IC′50 was from 50 nM to 200 nM.)
13,"CN(C)c1nc(N[C@H]2CC[C@@H](CNC(=O)c3c(Cl)cc(Cl)cc3Cl)CC2)nc2c1CCCC2 [compound 668, 2,4,6-trichloro-N-[(cis-4-{[4-(dimethylamino)-5,6,7,8-tetrahydroquinazolin-2-yl]amino}cyclohexyl)methyl]benzamide]",1 (Class 1: The value of percent of control at 10^−7 M was less than 40% or the value of IC50 was less than 50 nM.)
14,CN(C)c1nc(N[C@H]2CC[C@@H](CNC(=O)/C=C/c3ccccc3Cl)CC2)nc2c1CCCC2 [compound 669],3 (Class 3 The value of percent of control at 10^−7 M was more than 60% or the value of IC50 was more than 200 nM.)
15,Cc1ccc(Cl)c(C(=O)NC[C@H]2CC[C@@H](Nc3nc4c(c(N(C)C)n3)CCCC4)CC2)c1F [compound 670],3 (Class 3 The value of percent of control at 10^−7 M was more than 60% or the value of IC50 was more than 200 nM.)
16,CN(C)c1nc(N[C@H]2CC[C@@H](CNC(=O)c3c(F)ccc(F)c3Cl)CC2)nc2c1CCCC2 [compound 671],3 (Class 3 The value of percent of control at 10^−7 M was more than 60% or the value of IC50 was more than 200 nM.)
17,Cc1cccc(C(=O)NC[C@H]2CC[C@@H](Nc3nc4c(c(N(C)C)n3)CCCC4)CC2)c1C [compound 672],3 (Class 3 The value of percent of control at 10^−7 M was more than 60% or the value of IC50 was more than 200 nM.)
18,CN(C)c1cc(N[C@H]2CC[C@@H](NC(=O)c3ccc(Br)s3)CC2)nc2ccccc12 [compound 673],2 (Class 2: The value of percent of control at 10^−7 M was from 40% to 60% or the value of IC′50 was from 50 nM to 200 nM.)

row,SMILES,class
1,"CN(C)c1cc(N[C@H]2CC[C@@H](NC(=O)Cc3c(Cl)ccc(Cl)c3Cl)CC2)nc2ccccc12 [compound 674, N-(cis-4-{[4-(dimethylamino)quinolin-2-yl]amino}cyclohexyl)-2-(2,3,6-trichlorophenyl)acetamide]",3 (Class 3 The value of percent of control at 10^−7 M was more than 60% or the value of IC50 was more than 200 nM.)
2,CN(C)c1cc(N[C@H]2CC[C@@H](NC(=O)Cc3ccc(F)cc3Cl)CC2)nc2ccccc12 [compound 675],3 (Class 3 The value of percent of control at 10^−7 M was more than 60% or the value of IC50 was more than 200 nM.)
3,"CN(C)c1cc(N[C@H]2CC[C@@H](NC(=O)c3ccc(-c4ccc(Cl)cc4[N+](=O)[O-])o3)CC2)nc2ccccc12 [compound 676, 5-(4-chloro-2-nitrophenyl)-N-(cis-4-{[4-(dimethylamino)quinolin-2-yl]amino}cyclohexyl)-2-furamide]",2 (Class 2: The value of percent of control at 10^−7 M was from 40% to 60% or the value of IC′50 was from 50 nM to 200 nM.)
4,CN(C)c1cc(N[C@H]2CC[C@@H](NC(=O)c3ccc(Cl)s3)CC2)nc2ccccc12 [compound 677],2 (Class 2: The value of percent of control at 10^−7 M was from 40% to 60% or the value of IC′50 was from 50 nM to 200 nM.)
5,CN(C)c1cc(N[C@H]2CC[C@@H](NC(=O)CCc3ccccc3O)CC2)nc2ccccc12 [compound 679],3 (Class 3 The value of percent of control at 10^−7 M was more than 60% or the value of IC50 was more than 200 nM.)
6,"CN(C)c1cc(N[C@H]2CC[C@@H](NC(=O)c3ccc(I)o3)CC2)nc2ccccc12 [compound 680, N-(cis-4-{[4-(dimethylamino)quinolin-2-yl]amino}cyclohexyl)-5-iodo-2-furamide]",1 (Class 1: The value of percent of control at 10^−7 M was less than 40% or the value of IC50 was less than 50 nM.)
7,"CN(C)c1cc(N[C@H]2CC[C@@H](NC(=O)Cc3ccccc3I)CC2)nc2ccccc12 [compound 681, N-(cis-4-{[4-(dimethylamino)quinolin-2-yl]amino}cyclohexyl)-2-(2-iodophenyl)acetamide]",2 (Class 2: The value of percent of control at 10^−7 M was from 40% to 60% or the value of IC′50 was from 50 nM to 200 nM.)
8,"COc1ccc2[nH]c(C)c(CC(=O)N[C@H]3CC[C@@H](Nc4cc(N(C)C)c5ccccc5n4)CC3)c2c1 [compound 682, N-(cis-4-{[4-(dimethylamino)quinolin-2-yl]amino}cyclohexyl)-2-(5-methoxy-2-methyl-1H-indol-3-yl)acetamide]",2 (Class 2: The value of percent of control at 10^−7 M was from 40% to 60% or the value of IC′50 was from 50 nM to 200 nM.)
9,CN(C)c1cc(N[C@H]2CC[C@@H](NC(=O)/C=C/c3cccc([N+](=O)[O-])c3)CC2)nc2ccccc12 [compound 683],2 (Class 2: The value of percent of control at 10^−7 M was from 40% to 60% or the value of IC′50 was from 50 nM to 200 nM.)
10,CN(C)c1cc(N[C@H]2CC[C@@H](NC(=O)c3ccccc3Cc3ccccc3)CC2)nc2ccccc12 [compound 685],3 (Class 3 The value of percent of control at 10^−7 M was more than 60% or the value of IC50 was more than 200 nM.)
11,CN(C)c1cc(N[C@H]2CC[C@@H](NC(=O)C(c3ccc(Cl)cc3)c3ccc(Cl)cc3)CC2)nc2ccccc12 [compound 686],2 (Class 2: The value of percent of control at 10^−7 M was from 40% to 60% or the value of IC′50 was from 50 nM to 200 nM.)
12,Cc1ccc(-c2ccc(C(=O)N[C@H]3CC[C@@H](Nc4cc(N(C)C)c5ccccc5n4)CC3)o2)c([N+](=O)[O-])c1 [compound 687],3 (Class 3 The value of percent of control at 10^−7 M was more than 60% or the value of IC50 was more than 200 nM.)
13,"CN(C)c1cc(N[C@H]2CC[C@@H](NC(=O)c3ccc([N+](=O)[O-])s3)CC2)nc2ccccc12 [compound 688, N-(cis-4-{[4-(dimethylamino)quinolin-2-yl]amino}cyclohexyl)-5-nitrothiophene-2-carboxamide]",1 (Class 1: The value of percent of control at 10^−7 M was less than 40% or the value of IC50 was less than 50 nM.)
14,"Cc1cc(C(=O)N[C@H]2CC[C@@H](Nc3cc(N(C)C)c4ccccc4n3)CC2)ccc1[N+](=O)[O-] [compound 689, N-(cis-4-{[4-(dimethylamino)quinolin-2-yl]amino}cyclohexyl)-3-methyl-4-nitrobenzamide]",1 (Class 1: The value of percent of control at 10^−7 M was less than 40% or the value of IC50 was less than 50 nM.)
15,"COc1cc(C(=O)N[C@H]2CC[C@@H](Nc3cc(N(C)C)c4ccccc4n3)CC2)ccc1[N+](=O)[O-] [compound 690, N-(cis-4-{[4-(dimethylamino)quinolin-2-yl]amino}cyclohexyl)-3-methoxy-4-nitrobenzamide]",1 (Class 1: The value of percent of control at 10^−7 M was less than 40% or the value of IC50 was less than 50 nM.)
16,CN(C)c1cc(N[C@H]2CC[C@@H](NC(=O)c3cn(Cc4ccccc4)c4ccccc34)CC2)nc2ccccc12 [compound 691],3 (Class 3 The value of percent of control at 10^−7 M was more than 60% or the value of IC50 was more than 200 nM.)
17,CC(=O)c1cccc(C(=O)N[C@H]2CC[C@@H](Nc3cc(N(C)C)c4ccccc4n3)CC2)c1 [compound 692],3 (Class 3 The value of percent of control at 10^−7 M was more than 60% or the value of IC50 was more than 200 nM.)
18,CN(C)c1cc(N[C@H]2CC[C@@H](NC(=O)C3CCCC[C@H]3C(=O)c3ccccc3)CC2)nc2ccccc12 (stereo partly drawn) [compound 693],3 (Class 3 The value of percent of control at 10^−7 M was more than 60% or the value of IC50 was more than 200 nM.)
